# Experimental data: ChEMBL document CHEMBL3351783, “Structural insights into carbonic anhydrase IX isoform specificity of carbohydrate-based sulfamates” (J Med Chem, 2014)
# Molecular target: Carbonic anhydrase 9 (Homo sapiens, UniProt Q16790)
# Test: Inhibition of human recombinant carbonic anhydrase 9 by stopped-flow CO2 hydration assay
row,Ki [nM],Compound
1,215,CC(=O)OC[C@H]1O[C@@H](S(=O)(=O)NCCCOS(N)(=O)=O)[C@H](OC(C)=O)[C@@H](OC(C)=O)[C@@H]1OC(C)=O
2,2,CC(=O)OC[C@H]1O[C@@H](S(=O)(=O)N2CC[C@@H](OS(N)(=O)=O)C2)[C@H](OC(C)=O)[C@@H](OC(C)=O)[C@@H]1OC(C)=O
3,2,COC(=O)[C@@H]1C[C@@H](OS(N)(=O)=O)CN1S(=O)(=O)[C@@H]1O[C@H](COC(C)=O)[C@@H](OC(C)=O)[C@H](OC(C)=O)[C@H]1OC(C)=O
4,2,NS(=O)(=O)OCCCNS(=O)(=O)[C@@H]1O[C@H](CO)[C@@H](O)[C@H](O)[C@H]1O
5,2,NS(=O)(=O)O[C@@H]1CCN(S(=O)(=O)[C@@H]2O[C@H](CO)[C@@H](O)[C@H](O)[C@H]2O)C1

# Molecular target: Carbonic anhydrase 1 (Homo sapiens, UniProt P00915)
# Sequence (P00915 whole entry): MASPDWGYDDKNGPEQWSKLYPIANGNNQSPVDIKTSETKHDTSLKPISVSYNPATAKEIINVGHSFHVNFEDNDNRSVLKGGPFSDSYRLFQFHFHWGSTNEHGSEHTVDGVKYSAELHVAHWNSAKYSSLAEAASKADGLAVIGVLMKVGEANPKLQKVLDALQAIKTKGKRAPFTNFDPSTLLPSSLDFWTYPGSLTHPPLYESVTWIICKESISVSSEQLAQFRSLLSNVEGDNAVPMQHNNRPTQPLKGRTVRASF
# Test: Inhibition of human recombinant carbonic anhydrase 1 by stopped-flow CO2 hydration assay
row,Compound,Ki [nM]
1,COC(=O)[C@H](CS(N)(=O)=O)NS(=O)(=O)[C@@H]1O[C@H](COC(C)=O)[C@@H](OC(C)=O)[C@H](OC(C)=O)[C@H]1OC(C)=O,> 20000
2,NS(=O)(=O)OC1CCN(S(=O)(=O)[C@@H]2O[C@H](CO)[C@@H](O)[C@H](O)[C@H]2O)CC1,> 20000
